What was measured:
[1] = prior art compound; cited from earlier work
[2] = in vivo; cited from earlier work
[3] = test system: ear weight gain produced by multiple doses of TPA in mice; experiment: Chronic (multiple dose) TPA mouse ear inflammation assay, ear weight gain; assay type: in vivo, mouse (female CD-1); conditions: for % Inhibition of Ear Weight Gain, Actual / % Inhibition of Ear Weight Gain, Relative to Hydrocortisone (HCV) = 100%: multiple doses of TPA; for % Inhibition of Ear Weight Gain, Relative to Hydrocortisone (HCV) = 100%: head prints 1.25 eg/ear
Protocol: The acute skin inflammation model described in Example 1, tests the ability of a compound to prevent inflammation and thus must be applied prophylactically. Most clinical situations, however, are present as chronic inflammatory conditions. […] The effects of the compounds of the present invention and Salifluor on chronically inflamed skin was measured in the mouse ear model that utilizes multiple TPA doses over a 10-day period to produce the inflammatory response.
The assay used female CD-1 mice (7-9 weeks of age). Following a 2-week quarantine, mice were randomly assigned to test groups (5 mice/groups). TPA (10 uL of 0.01 TPA in acetone) was administered to both the inner and outer surface of each ear (2μg/ear) on day 0,2,4,7, and 9 on protocol. On Day 7,8 and 9, two applications of test article were applied to each ear 2 and 4 hours after dosing with TPA. The test articles were administered in 10 uL aliquots to both the inner and outer surface of each ear (20 μl total/dose). […] Hydrocortisone-17-valerate (HCV, 20μg/ear) was employed as a positive control. Mice were sacrificed at Day 10 on protocol and uniform punch biopsies (approximately 8 mm dia.) were taken from each ear. While on protocol, dermal irritation was scored semiquantitatively at Day 1,3,5,8, and 10.
Inhibition of TPA stimulated increased ear weight was used as an initial measure of efficacy for all of the agents tested. One biopsy from each mouse was also quick frozen and stored at -70° C. for later assay of myleoperoxidase, an enzyme associated with infiltrating PMN, or other measure of efficacy. The remaining biopsy from each mouse treated with Trifluorosal or HCV was fixed in formalin and processed for histopathologic evaluation, including measurement of cellular infiltration (PMNs, endothelial cells, macrophages) and epidermal thickness at 20 random sites along the length of the specimen.
Initially, a dose-response curve for multiple doses of TPA to produce mouse ear weight gain was generated in order to determine the concentration of TPA to be employed in the inhibition studies. […] Another major difference between the multiple TPA dose (or chronic assay for inflammation) and the single TPA dose (or acute assay for inflammation) in the mouse ear is sensitivity to Non-steroidal antiinflammatory drugs (NSAIDs) and antihistamines.

[4] = Solubility of representative compounds in various solvent systems; assay type: physicochemical
Protocol: The solubility of representative compounds of this invention in various solvent systems was determined. The solvents included ethanol, propylene glycol, SLS, Tween 80™ and combinations thereof.

[5] = prior art compound; cited from earlier work; remark: listed apart in the source
[6] = Single dose oral tolerance in rats; assay type: in vivo, rat (male weaning Sprague-Dawley); conditions: single dose 2.5 or 0.75 g/kg in 5% CMC, 7 days
Protocol: To test for tolerance of the administered compounds, male weaning Sprague-Dawley rats were fed in a single dose of 2.5 or 0.75 g/kg of TMF-12, TMF-10, TMC-10 or TPC-10 in 5% carboxymethyl cellulose (CMC) or CMC alone. […] At completion of the 7 day observation period, necropsies were performed on all animals.

[7] = Stability in solution by HPLC (TMF-10, 40° C.); assay type: physicochemical; conditions: 0.3 mg/ml in 30% ethanolic water, four weeks
Protocol: An analytical method to determine concentration and stability of some representative compounds of this invention in solution employing high pressure liquid chromatography (HPLC) was developed and validated. Both isocratic and gradient mobile phases of acetonitrile, water and methanol were investigated on a C-18 silica reverse solid phase column (Zorbax). Results were obtained using a 12 minute gradient of 80% to 100% methanol/water at a flow rate of 1.5 ml/minutes. Detection was carried out by measuring absorbance at 280 nm. Under these conditions TMF-10 and TMC-l0 each produced symmetrical peaks with retention times of 7.5 and 3.0 minutes, respectively. TMF-8 and TMF-12 had retention times of 4 and 9 minutes respectively. […] The lowest detectable quantity measured for all three compounds was 5.0 ng.
A 0.3 mg/ml solution of TMF-10 in 30% ethanolic water was maintained at 40° C. for several weeks. At various times samples were analyzed for decomposition employing the HPLC method described in Example 2.

[8] = aqueous buffer, pH 10 K-buffer @ 35° C.
[9] = aqueous buffer, pH 10 Na-buffer @ 22° C.
[10] = organic solvent or mixture, Ethanol @ 19° C.
[11] = organic solvent or mixture, Propylene Glycol @ 20° C.

| SMILES | % Inhibition of Ear Weight Gain, Actual [3] [%] | % Inhibition of Ear Weight Gain, Relative to Hydrocortisone (HCV) = 100% [3] [%] | solubility ([4]; +1% sls) [µg/mL] | solubility ([4]; +2% sls) [µg/mL] | solubility ([4]; +4% sls) [µg/mL] | solubility [4, 8] [µg/mL] | solubility [4, 9] [µg/mL] | solubility [4, 10] [µg/mL] | solubility [4, 11] [µg/mL] | further results |
| --- | --- | --- | --- | --- | --- | --- | --- | --- | --- | --- |
| CCCCCCCC(=O)c1ccc(O)c(C(=O)Nc2cccc(C(F)(F)F)c2)c1 [Salifluor, reference compound] | 0 | 0 | 230 | 290 | 380 | 1.14 | 3.91 | 13000 | 550 | pKa [1]: 6.1; Anti-inflammatory activity in clinical trials [2]: have been reported to have anti-inflammatory activity in clinical trials; Solubility in aqueous solutions at neutral pH [5]: relatively insoluble in aqueous solutions at neutral pH |
| CCCCCCCCCCS(=O)(=O)c1ccc(O)c(C(=O)Nc2cccc(C(F)(F)F)c2)c1 [TMF-10] | 54.7 | 59.9 | 920 | 1280 | 2080 | < 0.1 | 1.89 | 44700 | 1700 | Illness or deaths [6]: No illness or deaths occurred; Inhibition of ear weight gain ([3]; 5.0 mg/ear (printed 'mc/ear' for Trifluorosal)): 69.8%; Activity in chronic assay (in words) ([3]; 1.25-5 mg/ear, remaining experiments): demonstrated consistent activity; Inhibition of ear weight gain ([3]; 2.5 or 1.25 mg/ear (two values printed for three doses)): 0.0%; solubility ([4]; +0.5% tween 80): 760 µg/mL; solubility ([4]; +1.5% tween 80): 2020 µg/mL; solubility ([4]; +2% SLS + 0.5% Tween 80): 1350 µg/mL; solubility ([4]; +2% SLS + 1.0% Tween 80): 1910 µg/mL; solubility ([4]; +2% SLS + 2.0% Tween 80): 2870 µg/mL; solubility ([4]; +3.0% tween 80): 4130 µg/mL; solubility ([4]; ph 10 na-buffer +0.5% sls, pH 10 Na-buffer @ 22° C. +0.5% SLS): 370 µg/mL; Decomposition in solution [7]: no decomposition of TMF-10 was detected |
